In the data set the test system is human maximum recommended daily dose, FDA database. The experiment in a line: DSSTox (FDAMDD) FDA Maximum (Recommended) Daily Dose Database. Conditions: stronger effect = lower value. The procedure, abridged:
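MRDD values come from clinical trials with daily oral dosing, usually for 3–12 months, for the average adult, in mg/day converted to mg/kg-bw/day assuming 60 kg. Antineoplastic mg/m2 doses are divided by 37. Activity score maps log10(1/MRDD mmol) onto 1–100.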

Where [1] appears, read: TherapeuticCategory: sedative, hypnotic.
[2] abbreviates: TherapeuticCategory: antibacterial.
[3] abbreviates: TherapeuticCategory: antihistaminic.
Setting [4] is: TherapeuticCategory: antidepressant.
[5] abbreviates: TherapeuticCategory: anticholinergic.
[6] abbreviates: TherapeuticCategory: diagnostic aid.

The text below walks through data of PubChem BioAssay AID1195 (EPA DSSTox, 2008).

Molecules are shown by their SMILES.

As to `CC(=O)O[C@]1(C(C)=O)CC[C@H]2[C@@H]3C=C(Cl)C4=CC(=O)CC[C@]4(C)[C@H]3CC[C@@]21C`, the maximum recommended daily dose (mmol/kg-bw/day) (TherapeuticCategory: progestogen, antineoplastic) is 8.22e-05. In the case of `CC(C)(C)NCC(O)COc1cccc2c1CCC(=O)N2` (stereo not given), where the note is “TherapeuticCategory: antihypertensive, antianginal, antiarrhythmic, antiglaucomic”, the maximum recommended daily dose (mmol/kg-bw/day) is 0.000571. On to `C#CC(O)(/C=C\Cl)CC` (stereo not given), for which the maximum recommended daily dose (mmol/kg-bw/day) under setting [1] is 0.115.

For `COc1cc(NS(=O)(=O)c2ccc(N)cc2)nc(OC)n1`, the maximum recommended daily dose (mmol/kg-bw/day) under setting [2] is 0.107. In the case of `CNNCc1ccc(C(=O)NC(C)C)cc1`, the maximum recommended daily dose (mmol/kg-bw/day) (TherapeuticCategory: antineoplastic) was 0.0271. Take `NS(=O)(=O)c1cc2c(cc1C(F)(F)F)NC(Cc1ccccc1)NS2(=O)=O` (stereo not given): the maximum recommended daily dose (mmol/kg-bw/day) (TherapeuticCategory: diuretic, antihypertensive) was 0.00079. Take `CCOc1ccccc1OCCN[C@H](C)Cc1ccc(OC)c(S(N)(=O)=O)c1`: the maximum recommended daily dose (mmol/kg-bw/day) (TherapeuticCategory: alpha 1A androceptor antagonist) is 3.26e-05. Take `CC(N)C12CC3CC(CC(C3)C1)C2` (stereo not given): under “TherapeuticCategory: antiviral”, the maximum recommended daily dose (mmol/kg-bw/day) is 0.0186.

As for `O=C(Cn1cnnn1)N[C@@H]1C(=O)N2C(C(=O)O)=C(CSc3nncs3)CS[C@H]12`, under setting [2], the maximum recommended daily dose (mmol/kg-bw/day) is 0.151. Turning to `CCCC(C)C1(CC)C(=O)NC(=O)NC1=O` (stereo not given), the maximum recommended daily dose (mmol/kg-bw/day) under setting [1] was 0.0147. On to `O=C(O)CCC(=O)c1ccc2c(c1)-c1cccc3cccc-2c13`, for which, for the setting “TherapeuticCategory: choleretic”, the maximum recommended daily dose (mmol/kg-bw/day) was 0.0552. As to `CN(C)CCOc1ccccc1Cc1ccccc1`, the maximum recommended daily dose (mmol/kg-bw/day) under setting [3] is 0.013. With `CCOC(=O)C1=C(COCCN)NC(C)=C(C(=O)OC)C1c1ccccc1Cl` (stereo not given), where the note is “TherapeuticCategory: antianginal, antihypertensive”, the maximum recommended daily dose (mmol/kg-bw/day) is 0.000408. Regarding `CC(=O)OCC1=C(C(=O)O)N2C(=O)[C@@H](NC(=O)[C@H](N)c3ccccc3)[C@H]2SC1`, under setting [2], the maximum recommended daily dose (mmol/kg-bw/day) is 0.0821. For the molecule `CCOC(=O)C1=C[C@]2(CC)CCCN3CCc4c(n1c1ccccc41)[C@@H]32`, the maximum recommended daily dose (mmol/kg-bw/day) (TherapeuticCategory: cerebral vasodilator) is 0.00143. As to `Nc1nc(N)c2nc(-c3ccccc3)c(N)nc2n1`, the maximum recommended daily dose (mmol/kg-bw/day) (TherapeuticCategory: diuretic) is 0.0131. Consider `CC[C@]1(O)CC[C@H]2[C@@H]3CCC4=CC(=O)CC[C@@H]4[C@H]3CC[C@@]21C`, for which the maximum recommended daily dose (mmol/kg-bw/day) (TherapeuticCategory: androgen) was 0.00165. For the molecule `CN(C)CCCN1c2ccccc2C(C)(C)c2ccccc21`, the maximum recommended daily dose (mmol/kg-bw/day) under setting [4] is 0.034. As for `CCN(CC)CCNC(=O)c1ccc(N)cc1`, where the note is “TherapeuticCategory: antiarrhythmic”, the maximum recommended daily dose (mmol/kg-bw/day) was 0.212. In the case of `CC(Oc1ccccc1)C(=O)N[C@@H]1C(=O)N2[C@@H]1SC(C)(C)[C@@H]2C(=O)O` (stereo not given in full), the maximum recommended daily dose (mmol/kg-bw/day) under setting [2] is 0.137. `C[N+]1(C)CCN(CC(O)(c2ccccc2)C2CCCCC2)CC1` (stereo not given): the maximum recommended daily dose (mmol/kg-bw/day) under setting [5] was 0.0039.

Consider `CNC(=O)c1c(I)c(NC(C)=O)c(I)c(C(=O)O)c1I`, for which, under setting [6], the maximum recommended daily dose (mmol/kg-bw/day) was 0.163.

In the case of `CC(C)N=c1cc2n(-c3ccc(Cl)cc3)c3ccccc3nc-2cc1Nc1ccc(Cl)cc1`, the maximum recommended daily dose (mmol/kg-bw/day) under setting [2] is 0.00703.

On to `CC(C)(O)CC(C)(O)c1ccc(Cl)cc1` (stereo not given), for which the maximum recommended daily dose (mmol/kg-bw/day) under setting [4] is 0.0437. Regarding `CCCCC[C@H](O)/C=C/[C@@H]1[C@@H](C/C=C\CCCC(=O)O)[C@@H](O)C[C@H]1O`, the maximum recommended daily dose (mmol/kg-bw/day) (TherapeuticCategory: oxytocic, abortifacient) is 3.53e-05.

On to `COc1cc(C(=O)NS(=O)(=O)c2ccccc2C)ccc1Cc1cn(C)c2ccc(NC(=O)OC3CCCC3)cc12`, for which the maximum recommended daily dose (mmol/kg-bw/day) (TherapeuticCategory: antiasthmatic) was 0.00116.

`NCCc1ccn[nH]1`: the maximum recommended daily dose (mmol/kg-bw/day) under setting [6] is 0.0045.

Regarding `C[N+]1(C)CCCC(OC(=O)C(O)(c2ccccc2)c2ccccc2)C1` (stereo not given), the maximum recommended daily dose (mmol/kg-bw/day) under setting [5] is 0.00792. As to `CN(C)CCOC(c1ccccc1)c1ccccc1`, the maximum recommended daily dose (mmol/kg-bw/day) under setting [3] is 0.00326. Turning to `CC1(C)S[C@@H]2[C@H](NC(=O)[C@H](C(=O)O)c3ccsc3)C(=O)N2[C@H]1C(=O)O`, under setting [2], the maximum recommended daily dose (mmol/kg-bw/day) was 0.78. Take `CN(C)CCOC(C)(c1ccccc1)c1ccccn1` (stereo not given): where the note is “TherapeuticCategory: antihistaminic, hypnotic”, the maximum recommended daily dose (mmol/kg-bw/day) was 0.00154. For the molecule `C[C@H](CSC(=O)[C@@H](C)NC(=O)C1CCCCC1)C(=O)N1CCC[C@H]1C(=O)O`, the maximum recommended daily dose (mmol/kg-bw/day) (TherapeuticCategory: antihypertensive) was 0.00251. In the case of `CCN1CCN(C(=O)N[C@@H](C(=O)N[C@@H]2C(=O)N3C(C(=O)O)=C(CSc4nnnn4C)CS[C@H]23)c2ccc(O)cc2)C(=O)C1=O`, the maximum recommended daily dose (mmol/kg-bw/day) under setting [2] was 0.31. For `COc1ccccc1O`, the maximum recommended daily dose (mmol/kg-bw/day) (TherapeuticCategory: expectorant) was 0.0902.

As for `CNCCc1ccccn1`, under “TherapeuticCategory: vasodilator”, the maximum recommended daily dose (mmol/kg-bw/day) was 0.00587. Turning to `CCN(CC)C(=O)N[C@H]1C=C2c3cccc4[nH]cc(c34)C[C@H]2N(C)C1`, for the setting “TherapeuticCategory: antimigraine, prolactin inhibitor”, the maximum recommended daily dose (mmol/kg-bw/day) was 0.000246. As to `CC1CCC(C(C)C)C(O)C1` (stereo not given), the maximum recommended daily dose (mmol/kg-bw/day) (TherapeuticCategory: topical antipruritic) was 0.0128.

For `CC(C)NCC(O)c1ccc(O)c(O)c1` (stereo not given), under “TherapeuticCategory: bronchodilator”, the maximum recommended daily dose (mmol/kg-bw/day) was 0.000791. Turning to `CC(C)C[C@H](N)C(=O)O`, the maximum recommended daily dose (mmol/kg-bw/day) (TherapeuticCategory: nutrient) was 0.762.

As to `NCC(CC(=O)O)c1ccc(Cl)cc1` (stereo not given), where the note is “TherapeuticCategory: skeletal muscle relaxant”, the maximum recommended daily dose (mmol/kg-bw/day) is 0.00622.
